Tests used:
Test in all cases: relative viability (nuclei count vs DMSO), 5 days (fraction); higher = more cells survive
XMD8-85 + OSI-027 = compound: CN1CCN(CC1)C2=CC(=C(C=C2)NC3=NC=C4C(=N3)N(C5=CC=CC=C5C(=O)N4C)C)OC [XMD8-85] + COc1cccc2cc(-c3nc([C@H]4CC[C@H](C(=O)O)CC4)n4ncnc(N)c34)[nH]c12 [OSI-027] (partner 0.5 µM)
How it was run: (§1)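 Medians of duplicate plates are given as relative viability. That measure is the nuclei count in treated wells divided by the count in vehicle wells. Counts were taken on 4× images of lung cancer cell lines in 1536-well plates, 5 days after pin-tool dosing the day after seeding with one drug alone or a fixed anchor-drug dose plus five library-drug doses (not always all listed) in √10 steps.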

4EGI-1 + Linsitinib = compound: O=C(O)C(Cc1ccccc1[N+](=O)[O-])=NNc1nc(-c2ccc(Cl)c(Cl)c2)cs1 (mixture of isomers) [4EGI-1] + C[C@]1(O)C[C@@H](c2nc(-c3ccc4ccc(-c5ccccc5)nc4c3)c3c(N)nccn32)C1 [Linsitinib] (partner 1 µM)
How it was run: as §1

XMD8-85 + Vorinostat = compound: CN1CCN(CC1)C2=CC(=C(C=C2)NC3=NC=C4C(=N3)N(C5=CC=CC=C5C(=O)N4C)C)OC [XMD8-85] + O=C(CCCCCCC(=O)Nc1ccccc1)NO [Vorinostat] (partner 1 µM)
How it was run: as §1

4EGI-1 + Navitoclax = compound: O=C(O)C(Cc1ccccc1[N+](=O)[O-])=NNc1nc(-c2ccc(Cl)c(Cl)c2)cs1 (mixture of isomers) [4EGI-1] + CC1(C)CCC(c2ccc(Cl)cc2)=C(CN2CCN(c3ccc(C(=O)NS(=O)(=O)c4ccc(N[C@H](CCN5CCOCC5)CSc5ccccc5)c(S(=O)(=O)C(F)(F)F)c4)cc3)CC2)C1 [Navitoclax] (partner 0.5 µM)
How it was run: as §1

| Cell Line | relative viability (XMD8-85 + OSI-027; first compound 0.08 µM) | relative viability (XMD8-85 + OSI-027; first compound 0.253 µM) | relative viability (XMD8-85 + OSI-027; first compound 0.8 µM) | relative viability (XMD8-85 + OSI-027; first compound 2.53 µM) | relative viability (XMD8-85 + OSI-027; first compound 8 µM) | relative viability (4EGI-1 + Linsitinib; first compound 0.5 µM) | relative viability (4EGI-1 + Linsitinib; first compound 1.581 µM) | relative viability (4EGI-1 + Linsitinib; first compound 5 µM) | relative viability (4EGI-1 + Linsitinib; first compound 15.81 µM) | relative viability (4EGI-1 + Linsitinib; first compound 50 µM) | relative viability (XMD8-85 + Vorinostat; first compound 0.08 µM) | relative viability (XMD8-85 + Vorinostat; first compound 0.8 µM) | relative viability (XMD8-85 + Vorinostat; first compound 8 µM) | relative viability (4EGI-1 + Navitoclax; first compound 0.5 µM) | relative viability (4EGI-1 + Navitoclax; first compound 1.581 µM) | relative viability (4EGI-1 + Navitoclax; first compound 5 µM) | relative viability (4EGI-1 + Navitoclax; first compound 15.81 µM) | relative viability (4EGI-1 + Navitoclax; first compound 50 µM) | relative viability (XMD8-85 + Vorinostat; first compound 0.253 µM) | relative viability (XMD8-85 + Vorinostat; first compound 2.53 µM) |
| --- | --- | --- | --- | --- | --- | --- | --- | --- | --- | --- | --- | --- | --- | --- | --- | --- | --- | --- | --- | --- |
| NCI-H1623 | 0.44 | 0.395 | 0.349 | 0.413 | 0.368 |  |  |  |  |  |  |  |  |  |  |  |  |  |  |  |
| NCI-H2126 | 0.603 | 0.696 | 0.739 | 0.855 | 0.624 | 0.734 | 0.693 | 0.717 | 0.652 | 0.673 | 0.772 | 0.795 | 0.553 | 0.892 | 0.793 | 0.858 | 0.709 | 0.806 |  |  |
| NCI-H596 | 0.69 | 0.918 | 0.773 | 0.795 |  | 1.06 | 0.818 | 1.09 | 1.02 | 0.815 | 0.517 | 0.495 | 0.361 | 0.956 | 0.708 | 0.86 | 0.869 | 0.805 | 0.559 | 0.53 |
| NCI-H2009 | 0.589 | 0.704 | 0.638 | 0.508 | 0.324 | 1.33 | 1.23 | 1.29 | 1.07 | 0.885 | 0.716 |  |  | 1.19 | 1.21 | 1.22 | 1.11 | 0.17 | 0.774 | 0.621 |
| NCI-H2228 | 0.544 | 0.879 | 0.686 | 0.6 | 0.336 | 0.778 | 0.783 | 0.734 | 0.721 | 0.166 | 0.523 | 0.585 | 0.392 | 1.08 | 1.08 | 0.99 | 0.617 | 0.931 | 0.59 | 0.842 |
| NCI-H2085 | 0.712 | 0.969 | 0.697 | 0.64 | 0.474 | 1.03 | 0.911 | 0.887 | 0.771 | 0.639 | 0.774 | 0.762 | 0.546 | 1.19 | 1.01 | 1.2 | 0.931 | 0.743 | 0.812 | 0.756 |
| SW 900 | 0.583 | 0.623 | 0.581 | 0.553 | 0.304 |  |  |  |  |  | 0.372 | 0.434 | 0.188 |  |  |  |  |  | 0.584 | 0.671 |
| H3255 | 0.599 | 0.597 | 0.611 | 0.603 | 0.469 | 1.09 | 0.697 | 0.994 | 0.584 | 0.857 | 0.875 | 0.867 | 0.536 | 0.587 | 0.477 | 0.557 | 0.137 | 0.368 | 0.761 | 0.902 |
| NCI-H1299 |  |  |  |  |  | 0.944 | 0.931 | 0.994 | 1.05 | 0.849 |  |  |  | 1.1 | 1.04 | 1.04 | 0.986 | 1.08 |  |  |
| NCI-H1563 | 0.819 |  | 0.755 | 0.715 | 0.789 | 1.31 | 0.979 | 1.29 | 1.22 | 0.883 |  |  |  |  |  |  |  |  |  |  |
| NCI-H1648 | 0.248 | 0.268 |  |  | 0.228 |  |  |  |  |  | 0.522 | 0.265 | 0.292 |  |  |  |  |  | 0.474 | 0.244 |

Reference: the supplement of paper PMC10307832
